# Measured values: patent publication US20250222120A1, “SYNTHESIS OF NOVEL SMALL MOLECULE CARM1 DEGRADERS, COMPOUNDS FORMED THEREBY, AND PHARMACEUTICAL COMPOSITIONS CONTAINING THEM” (Wisconsin Alumni Research Foundation, priority 2024, published 2025)
# Key:
# CARM1 = target: T1, CARM1 (Homo sapiens, UniProt Q86X55); experiment: CARM1 degradation by western blot in MDA-MB-231 cells; assay type: cell-based; conditions: triple-negative MDA-MB-231 cells, 0.5 μM, after 24 or 48 h
# T1 sequence (Q86X55 1-608): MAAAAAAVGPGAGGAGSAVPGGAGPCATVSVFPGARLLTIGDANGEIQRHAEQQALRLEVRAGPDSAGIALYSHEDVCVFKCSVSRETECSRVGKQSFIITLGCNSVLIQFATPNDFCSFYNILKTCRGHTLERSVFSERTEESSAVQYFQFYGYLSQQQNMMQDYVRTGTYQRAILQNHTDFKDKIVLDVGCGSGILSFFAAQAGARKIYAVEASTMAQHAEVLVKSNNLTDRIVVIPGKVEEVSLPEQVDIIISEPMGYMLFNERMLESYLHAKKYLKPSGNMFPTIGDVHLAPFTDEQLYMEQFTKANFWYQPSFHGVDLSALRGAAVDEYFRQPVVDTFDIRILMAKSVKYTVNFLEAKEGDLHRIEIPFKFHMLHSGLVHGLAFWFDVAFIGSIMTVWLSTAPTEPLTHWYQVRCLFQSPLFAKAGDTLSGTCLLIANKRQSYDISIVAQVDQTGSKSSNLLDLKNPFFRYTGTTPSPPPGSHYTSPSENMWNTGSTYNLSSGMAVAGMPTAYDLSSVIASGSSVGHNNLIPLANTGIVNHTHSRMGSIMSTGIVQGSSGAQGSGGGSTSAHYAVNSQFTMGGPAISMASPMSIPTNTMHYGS
# Description: FIGS. 7A-7F. […] Cell lysates were collected and CARM1, methyl-BAF155, total BAF155, methyl-PABP1, and total PABP1 levels were detected by Western blot. […] Cell lysates were collected and CARM1, methyl-BAF155, total BAF155 levels were detected by Western blot. […] Cell proliferation rate normalized to day 0 was plotted. […] Migrated cells were stained with 1% crystal violet and the percentage of migrated cells were plotted. Data mean±s.d. ***. P≤0.001.
# Western Blot Assay. Cells were harvested and washed with Dulbecco's phosphate-buffered saline (PBS), then lysed with 1×RIPA lysis buffer (50 mM Tris pH 7.5, 150 mM NaCl, 1% NP-40, 0.5% sodium deoxycholate, and 0.1% sodium dodecyl sulfate) supplemented with 1 mM phenylmethylsulfonyl fluoride, 10 μg/mL aprotinin, 1 μM leupeptin, and 10 μg/mL pepstatin on ice for 20 min. The supernatant was collected after spinning down at 15000 RPM at 4 degrees Celsius for 10 min. The concentration of whole lysates was quantified using a Bradford assay. 50-75 μg of cell lysates was boiled in 4× Laemmli Loading Dye and boiled at 100 degrees Celsius for 10 min. 25 μg were run in 8% SDS-PAGE gels and transferred to nitrocellulose membranes. Blots were blocked in 5% skim milk in PBST [PBS and 0.1% Tween 20] for 45 min, then incubated with primary antibodies at 4 degrees Celsius overnight. […]
# MDA-MB-231 cells = experiment: Cell proliferation assay, MDA-MB-231 cells; assay type: cell-based; conditions: 0.5 μM, 7 days
# Method: Cell Proliferation Assay. Cell proliferation was measured by direct cell count via high contrast brightfield microscopy. MDA-MB-231 cells (3×10^3/well) were seeded in 100 μL of DMEM into the wells of a 96-well plate. Cells were treated with either DMSO, TP-064, or 3b and refreshed every two days. The plate was imaged daily for 7 days using the High-Contrast Brightfield Kit for Label-Free Cell Counting (BioTek) on the BioTek Imager.
# MCF10A cells = experiment: Cell proliferation assay, MCF10A cells; assay type: cell-based, human; conditions: 0.5 μM
smiles,measurement,setting,value
"CNCCN1CCC(c2cc(CN(C)C(=O)c3cccc(Oc4ccc(OCC(=O)N5CCC(CN6CCC(CN7CCN(CC(=O)N[C@H](C(=O)N8C[C@H](O)C[C@H]8C(=O)N[C@@H](C)c8ccc(-c9scnc9C)cc8)C(C)(C)C)CC7)CC6)CC5)cc4)c3)ccn2)CC1 [Compound 3b, (2S,4R)-1-((S)-3,3-dimethyl-2-(2-(4-((1-((1-(2-(4-(3-(methyl((2-(1-(2-(methylamino)ethyl)piperidin-4-yl)pyridin-4-yl)methyl)carbamoyl)phenoxy)phenoxy)acetyl)piperidin-4-yl)methyl)piperidin-4-yl)methyl)piperazin-1-yl)acetamido)butanoyl)-4-hydroxy-N—((S)-1-(4-(4-methylthiazol-5-yl)phenyl)ethyl)pyrrolidine-2-carboxamide]",CARM1 degradation,CARM1,effectively degraded
same,Cell proliferation,MDA-MB-231 cells,not to inhibit cell proliferation
same,Cell proliferation,MCF10A cells,not to inhibit cell proliferation
